Experimental data reported in US9187411B2, “Leukotriene B4 antagonist compound” (Eli Lilly and Company, priority 2012, dated 2015).

Target: T1, PPARγ (Homo sapiens, UniProt P37231)
T1 construct: made in house; host or cells: Sf9 insect cells (baculovirus), crude cell lysate
T1 sequence (P37231 1-505): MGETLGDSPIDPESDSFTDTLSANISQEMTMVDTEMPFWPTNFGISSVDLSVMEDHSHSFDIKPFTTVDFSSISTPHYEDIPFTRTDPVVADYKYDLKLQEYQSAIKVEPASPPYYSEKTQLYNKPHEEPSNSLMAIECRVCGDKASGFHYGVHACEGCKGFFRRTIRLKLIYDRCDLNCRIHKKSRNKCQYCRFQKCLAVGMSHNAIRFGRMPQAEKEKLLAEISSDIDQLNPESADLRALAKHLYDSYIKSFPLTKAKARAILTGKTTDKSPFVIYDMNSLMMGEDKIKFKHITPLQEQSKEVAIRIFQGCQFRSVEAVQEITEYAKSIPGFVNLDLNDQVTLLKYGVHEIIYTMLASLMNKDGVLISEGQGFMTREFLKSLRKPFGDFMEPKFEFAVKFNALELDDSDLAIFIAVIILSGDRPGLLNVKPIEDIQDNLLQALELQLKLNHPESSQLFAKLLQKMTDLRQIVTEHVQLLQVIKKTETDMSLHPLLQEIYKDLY
T1 sequence (P19793 1-462 partner): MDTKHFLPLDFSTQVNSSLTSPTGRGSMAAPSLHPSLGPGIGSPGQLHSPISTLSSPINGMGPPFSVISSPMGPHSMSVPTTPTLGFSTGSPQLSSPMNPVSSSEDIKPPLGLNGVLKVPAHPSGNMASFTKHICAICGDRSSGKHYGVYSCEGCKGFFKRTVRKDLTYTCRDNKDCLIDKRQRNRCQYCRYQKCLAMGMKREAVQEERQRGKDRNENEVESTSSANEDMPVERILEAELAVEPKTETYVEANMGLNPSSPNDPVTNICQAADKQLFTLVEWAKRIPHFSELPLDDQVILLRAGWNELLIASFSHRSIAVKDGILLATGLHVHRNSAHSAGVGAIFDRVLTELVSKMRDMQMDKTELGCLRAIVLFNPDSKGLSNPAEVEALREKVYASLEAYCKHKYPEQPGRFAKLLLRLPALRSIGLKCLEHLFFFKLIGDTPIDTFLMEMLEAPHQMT
Assay: PPAR gamma binding assay (SPA)
Details: n=2, read-out: Ki PPAR γ binding
Text: The nucleotide sequences encoding full-length PPARα receptor DNA (National Center for Biotechnology Information (NCBI) Reference Sequence NM_005036.4), PPARδ receptor DNA (NCBI Reference Sequence NM_006238.4), PPARγ receptor DNA (NCBI Reference Sequence NM_015869.4) and Retinoid X Receptor (RXR) α DNA (NCBI Reference Sequence NM_002957.4) are synthesized and inserted into pFastBacHTb (Invitrogen) vector in-framed with the N-terminal HIS tag from the vector. […] The protein concentration is determined by Bradford assay using BSA as the standard.
Binding Affinities of Compounds for the PPAR α, δ, γ Receptors are Assessed Using Scintillation Proximity Assay (SPA) Technology.
Biotinylated oligonucleotide(DR2) ^5′[…]^3′ (SEQ ID NO: 1) is used for binding of receptors to Yttrium silicate streptavidin-coated SPA beads (Perkin Elmer). The PPAR α, δ, γ and Retinoid X Receptor (RXR) α receptors (endogenously expressed as heterodimers) are cell lysates from Baculovirus expression systems in Sf9 cells. […] Non-specific binding is determined in the presence of 10000 nM unlabeled GW2331 (Kliewer, S. A. et al Proc. Natl. Acad. Sci. USA (1997), 94: 4318-4323) for the alpha and delta receptors and 2-methyl-2-[4-[3-[propyl[(5-pyridin-2-ylthiophen-2-yl)sulfonyl]amino]-propyl]phenoxy]propanoic (WO 2004/073606) for the gamma receptor. […]

`CCCc1c(NC(=O)CC(C)(C)C(=O)[O-])cccc1OCCCOc1cc(O)c(-c2ccc(F)cc2)cc1CC.[Na+]` [Example 2, Sodium 4-[[3-[3-[2-ethyl-4-(4-fluorophenyl)-5-hydroxy-phenoxy]propoxy]-2-propyl-phenyl]amino]-2,2-dimethyl-4-oxo-butanoate] gave a Ki of 1380 nM.
